From patent US20180092358A1, “HERBICIDAL MIXTURES” (Syngenta Participations AG, priority 2015, published 2018)

Key:
Format in all cases: in vivo
Echinochloa crus-galli [1] = assay: Post-emergence herbicidal activity (glasshouse); settings: application post-emergence, 1000 g/Ha, evaluated after 13 days, scale 0-5
Method: (§1) Seeds of a variety of test species were sown in standard soil in pots. After 8 days cultivation (post-emergence) under controlled conditions in a glasshouse (at 24/16° C., day/night; 14 hours light; 65% humidity), the plants were sprayed with an aqueous spray solution derived from the formulation of the technical active ingredient in acetone/water (50:50) solution containing 0.5% Tween 20 (polyoxyethelyene sorbitan monolaurate, CAS RN 9005-64-5). The test plants were then grown in a glasshouse under controlled conditions (at 24/16° C., day/night; 14 hours light; 65% humidity) and watered twice daily. After 13 days, the test was evaluated (5=total damage to plant; 0=no damage to plant).

Abutilon theophrasti [2] = assay: Post-emergence herbicidal activity (glasshouse); settings: application post-emergence, 1000 g/Ha, evaluated after 13 days, scale 0-5
Method: as §1

Amaranthus retroflexus [3] = assay: Post-emergence herbicidal activity (glasshouse); settings: application post-emergence, 1000 g/Ha, evaluated after 13 days, scale 0-5
Method: as §1

Setaria faberi [4] = assay: Post-emergence herbicidal activity (glasshouse); settings: application post-emergence, 1000 g/Ha, evaluated after 13 days, scale 0-5
Method: as §1

Zea mays [5] = assay: Post-emergence herbicidal activity (glasshouse); settings: application post-emergence, 1000 g/Ha, evaluated after 13 days, scale 0-5
Method: as §1

Echinochloa crus-galli [6] = assay: Pre-emergence herbicidal activity (glasshouse); settings: application pre-emergence, 1000 g/Ha, evaluated after 13 days, scale 0-5
Method: as §1, with “After” for “After 8 days”, “for one day (pre-emergence)” for “(post-emergence)”

Abutilon theophrasti [7] = assay: Pre-emergence herbicidal activity (glasshouse); settings: application pre-emergence, 1000 g/Ha, evaluated after 13 days, scale 0-5
Method: as §1, with “After” for “After 8 days”, “for one day (pre-emergence)” for “(post-emergence)”

Amaranthus retroflexus [8] = assay: Pre-emergence herbicidal activity (glasshouse); settings: application pre-emergence, 1000 g/Ha, evaluated after 13 days, scale 0-5
Method: as §1, with “After” for “After 8 days”, “for one day (pre-emergence)” for “(post-emergence)”

Setaria faberi [9] = assay: Pre-emergence herbicidal activity (glasshouse); settings: application pre-emergence, 1000 g/Ha, evaluated after 13 days, scale 0-5
Method: as §1, with “After” for “After 8 days”, “for one day (pre-emergence)” for “(post-emergence)”

Zea mays [10] = assay: Pre-emergence herbicidal activity (glasshouse); settings: application pre-emergence, 1000 g/Ha, evaluated after 13 days, scale 0-5
Method: as §1, with “After” for “After 8 days”, “for one day (pre-emergence)” for “(post-emergence)”

Alopecurus myosuroides [11] = assay: Post-emergence herbicidal activity (glasshouse); settings: application post-emergence, 1000 g/Ha, evaluated after 13 days, scale 0-5
Method: as §1

Alopecurus myosuroides [12] = assay: Pre-emergence herbicidal activity (glasshouse); settings: application pre-emergence, 1000 g/Ha, evaluated after 13 days, scale 0-5
Method: as §1, with “After” for “After 8 days”, “for one day (pre-emergence)” for “(post-emergence)”

CCO[C@@H]1C(O)N(c2cc(C(C)(C)C)on2)C(=O)N1C (single isomer, unassigned) [Compound 1.6]
1: damage to plant score, SETFA (Setaria faberi [9])
4: damage to plant score, ZEAMX (Zea mays [5]) | damage to plant score, ECHCG (Echinochloa crus-galli [6])
5: damage to plant score, ECHCG (Echinochloa crus-galli [1]) | damage to plant score, ABUTH (Abutilon theophrasti [2]) | damage to plant score, AMARE (Amaranthus retroflexus [3]) | damage to plant score, SETFA (Setaria faberi [4]) | damage to plant score, ABUTH (Abutilon theophrasti [7]) | damage to plant score, AMARE (Amaranthus retroflexus [8])
2: damage to plant score, ZEAMX (Zea mays [10])

CON1C(=O)N(c2cc(C(F)(F)F)ccn2)C(O)C1C (stereo not shown) [Compound 1.1, 4-hydroxy-1-methoxy-5-methyl-3-[4-(trifluoromethyl)-2-pyridyl]imidazolidin-2-one]
5: damage to plant score, ECHCG (Echinochloa crus-galli [1]) | damage to plant score, ABUTH (Abutilon theophrasti [2]) | damage to plant score, AMARE (Amaranthus retroflexus [3]) | damage to plant score, SETFA (Setaria faberi [4]) | damage to plant score, ALOMY (Alopecurus myosuroides [11]) | damage to plant score, ABUTH (Abutilon theophrasti [7]) | damage to plant score, AMARE (Amaranthus retroflexus [8]) | damage to plant score, SETFA (Setaria faberi [9])
4: damage to plant score, ECHCG (Echinochloa crus-galli [6]) | damage to plant score, ALOMY (Alopecurus myosuroides [12])
2: damage to plant score, ZEAMX (Zea mays [5]) | damage to plant score, ZEAMX (Zea mays [10])

CC1C(O)N(c2cc(C(F)(F)F)ccn2)C(=O)N1C (stereo not shown) [Compound 1.2, 4-hydroxy-1,5-dimethyl-3-[4-(trifluoromethyl)-2-pyridyl]imidazolidin-2-one]
3: damage to plant score, ZEAMX (Zea mays [10])
5: damage to plant score, ECHCG (Echinochloa crus-galli [1]) | damage to plant score, ABUTH (Abutilon theophrasti [2]) | damage to plant score, AMARE (Amaranthus retroflexus [3]) | damage to plant score, SETFA (Setaria faberi [4]) | damage to plant score, ALOMY (Alopecurus myosuroides [11]) | damage to plant score, ABUTH (Abutilon theophrasti [7]) | damage to plant score, AMARE (Amaranthus retroflexus [8]) | damage to plant score, SETFA (Setaria faberi [9])
4: damage to plant score, ZEAMX (Zea mays [5]) | damage to plant score, ECHCG (Echinochloa crus-galli [6]) | damage to plant score, ALOMY (Alopecurus myosuroides [12])

CCOC1C(O)N(c2cc(C(F)(F)F)ccn2)C(=O)N1C (stereo not shown) [Compound 1.3, 5-ethoxy-4-hydroxy-1-methyl-3-[4-(trifluoromethyl)-2-pyridyl]imidazolidin-2-one]
5: damage to plant score, ECHCG (Echinochloa crus-galli [1]) | damage to plant score, ABUTH (Abutilon theophrasti [2]) | damage to plant score, AMARE (Amaranthus retroflexus [3]) | damage to plant score, SETFA (Setaria faberi [4]) | damage to plant score, ALOMY (Alopecurus myosuroides [11]) | damage to plant score, ECHCG (Echinochloa crus-galli [6]) | damage to plant score, ABUTH (Abutilon theophrasti [7]) | damage to plant score, AMARE (Amaranthus retroflexus [8]) | damage to plant score, SETFA (Setaria faberi [9])
3: damage to plant score, ZEAMX (Zea mays [10])
4: damage to plant score, ZEAMX (Zea mays [5]) | damage to plant score, ALOMY (Alopecurus myosuroides [12])

CN1CC(O)N(c2cc(C(F)(F)F)ccn2)C1=O (stereo not shown) [Compound 1.4, 4-hydroxy-1-methyl-3-[4-(trifluoromethyl)-2-pyridyl]imidazolidin-2-one]
3: damage to plant score, ZEAMX (Zea mays [10])
4: damage to plant score, SETFA (Setaria faberi [9]) | damage to plant score, ALOMY (Alopecurus myosuroides [12])
5: damage to plant score, ECHCG (Echinochloa crus-galli [1]) | damage to plant score, ABUTH (Abutilon theophrasti [2]) | damage to plant score, AMARE (Amaranthus retroflexus [3]) | damage to plant score, SETFA (Setaria faberi [4]) | damage to plant score, ALOMY (Alopecurus myosuroides [11]) | damage to plant score, ZEAMX (Zea mays [5]) | damage to plant score, ECHCG (Echinochloa crus-galli [6]) | damage to plant score, ABUTH (Abutilon theophrasti [7]) | damage to plant score, AMARE (Amaranthus retroflexus [8])

CC1C(O)N(c2cc(C(F)(F)F)n(C)n2)C(=O)N1C (stereo not shown) [Compound 1.5, 4-hydroxy-1,5-dimethyl-3-[1-methyl-5-(trifluoromethyl)pyrazol-3-yl]imidazolidin-2-one]
5: damage to plant score, ECHCG (Echinochloa crus-galli [1]) | damage to plant score, ABUTH (Abutilon theophrasti [2]) | damage to plant score, AMARE (Amaranthus retroflexus [3]) | damage to plant score, SETFA (Setaria faberi [4]) | damage to plant score, ALOMY (Alopecurus myosuroides [11]) | damage to plant score, ABUTH (Abutilon theophrasti [7]) | damage to plant score, AMARE (Amaranthus retroflexus [8])
4: damage to plant score, ZEAMX (Zea mays [5]) | damage to plant score, ECHCG (Echinochloa crus-galli [6]) | damage to plant score, SETFA (Setaria faberi [9]) | damage to plant score, ALOMY (Alopecurus myosuroides [12]) | damage to plant score, ZEAMX (Zea mays [10])
